The values that follow come from patent US9029092B2, “Solution phase homogeneous assays” (Beckman Coulter, Inc., priority 2009, dated 2015).

Assay [1] relates to TnI. The assay can be described thus: Assays utilizing various SSIA in TnI assay. In kind it is biochemical. As to conditions: for Signal/Noise S1/S0: calibrator S1; for Signal/Noise S2/S0: calibrator S2; for Signal/Noise S3/S0: calibrator S3; for Signal/Noise S4/S0: calibrator S4; for Signal/Noise S5/S0: calibrator S5; for Signal/Noise S6/S0: calibrator S6. The method, then:
In a reaction tube, 400 uL of TnI M6 antibody-HRP conjugate at 0.5 ug/mL in buffered aqueous solution at pH. 8.0 (100 mM Tris, 150 mM NaCl, 0.1 mM EDTA, 0.2% Tween-20 and 1% BSA), 400 uL of AK1˜Dex70/31˜Streptavidin (fraction 1) 2:1 SA/Ab at 2 ug/mL Ab also in buffered aqueous solution at pH 8.0, and 400 uL of calibrator standard solution containing the TnI analyte at a known concentration. One tube was prepared for each calibrator concentration. […] Next, 25 uL of each antioxidant as a concentrated solution of 2 mM, 1 mM or 0.5 mM was pipetted into the plate wells using a repeater pipette. The plates were rotated for 10 seconds to mix and incubated between 5 to 33 minutes. Detection was performed with a SpectraMax L injection plate luminometer.

The test system of assay [2] is biotinylated HRP. The assay is described as follows: Model system for selection of SSIA (AK1/streptavidin BSA microparticles + biotinylated HRP). In kind it is biochemical, horseradish. As to conditions: SSIA 100 μM final; for light intensity, BTN-HRP0: Btn-HRP 0 ng/mL; for light intensity, BTN-HRP0 / light intensity, BTN-HRP1 / light intensity, BTN-HRP10 / light intensity, BTN-HRP100 / light intensity, BTN-HRP250: total HRP 500 ng/mL; for S1/S0: Btn-HRP 1 ng/mL vs 0; for light intensity, BTN-HRP1: Btn-HRP 1 ng/mL; for S2/S0: Btn-HRP 10 ng/mL vs 0; for light intensity, BTN-HRP10: Btn-HRP 10 ng/mL; for S3/S0: Btn-HRP 100 ng/mL vs 0; for light intensity, BTN-HRP100: Btn-HRP 100 ng/mL; for S4/S0: Btn-HRP 250 ng/mL vs 0; for light intensity, BTN-HRP250: Btn-HRP 250 ng/mL. The procedure:
The model system uses a microparticle conjugated to BSA (bovine serum albumin) labeled with a […] and acridan ketenedithioacetal chemiluminescent label (AK1) as the chemiluminescent-labeled sbp, and biotinylated HRP as the activator-labeled specific binding pair. In the model system, varying amounts of Btn-HRP is added to the chemiluminescent-labeled specific binding pair at 0, 1, 10, 100 and 250 ng/mL. Additional unlabeled HRP is added to reach a total HRP of concentration of 500 ng/mL in each reaction mixture. The unlabeled HRP in combination with the activator-labeled sbp was provided to the chemiluminescent-labeled sbp microparticles to emulate sample. A compound for assessment as an SSIA was also added. This reaction mixture of the model system is then triggered by addition of trigger solution in a manner of assays of the present disclosure.
To prepare the chemiluminescent-labeled sbp on microparticles, Bovine Serum Albumin (BSA) was biotinylated with 4× molar excess of biotin-LC-sulfoNHS (Pierce Biotechnology Inc., Rockford, Ill., USA). Unbound reactants were removed via desalting or dialysis. The biotin-BSA was then reacted with a 5× molar excess of an NHS ester of acridan ketenedithioacetal AK1 in 20 mM sodium phosphate pH 7.2: DMSO 75:25, v/v) followed by desalting in the same buffer. The dual labeled (biotin and AK1) BSA was then coupled with tosyl activated M280 microparticles (Invitrogen Corporation, Carlsbad, Calif., USA) in a 0.1M borate buffer pH 9.5 at a concentration of about 20 μg of labeled BSA per mg of microparticles for 16-24 h at 40° C. After coupling the microparticles were stripped for 1 h at 40° C. with 0.2 M TRIS base, 2% SDS, pH˜11. The stripping process was repeated one additional time. Microparticles were then suspended in a 0.1% BSA/TRIS buffered saline (BSA/TBS) buffer and streptavidin (SA) was added at approximately 15 μg SA per mg microparticles. Streptavidin was mixed with the microparticles for 45-50 min at room temperature. The microparticles were then washed three times and suspended in the same BSA/TBS.
HRP, (Roche Diagnostics, Indianapolis, Ind., USA) was biotinylated with 4× molar excess of biotin-LC-sulfoNHS (Pierce Biotechnology Inc., Rockford, Ill., USA). Alternatively, 25× molar excess of biotin-PEO4-NHS may be used. Unbound reactants were removed via desalting or dialysis.
Each SSIA compound for assessment was solubilized in Buffer II at a concentration at least 10× of the working strength concentration.
25 μl of 1 mg/ml of dual-labeled (biotin and AK1) BSA M280 particles were mixed with 45 μl of working concentration SSIA in Buffer II. The assay volume brought to 85 μl by adding 15 μl of Buffer II. 15 μl of sample containing Btn-HRP:HRP at different ratios (The amount of biotinylated-HRP varied from 0, 1, 10, 100 and 250 ng/mL) was added. The reaction mixture was incubated for 30 min at 37° C., then 100 μL of trigger solution was added and the light intensity recorded. Total volume of reaction mixture, including trigger solution was 200 μL with a final concentration of 100 μM of SSIA.
The screening tests were performed using a modified DxI® Immunoassay System (Beckman Coulter, Inc. Brea, Calif.) as described above.

The mark [3] stands for this setting: SSIA final concentration 125 uM.
Setting [4] is: SSIA final concentration 250 uM.
The mark [5] stands for this setting: SSIA final concentration 500 uM.
Setting [6] is: SSIA final concentration 6.25 uM.
Setting [7] is: SSIA final concentration 12.5 uM.

`Nc1cc(C[C@H](N)C(=O)O)ccc1O` [3-Amino Tyrosine]: in assay [1] (setting [3]), the “Signal/Noise S1/S0” value was 1.5, the “Signal/Noise S2/S0” value was 2.8, the “Signal/Noise S3/S0” value is listed as 9.0 and the “Signal/Noise S4/S0” value turned out to be 32.2. Further, in assay [1] (setting [3]), the “Signal/Noise S5/S0” value is on record as 234.8 and the “Signal/Noise S6/S0” value was 2268.7. Moreover, in assay [1] (setting [4]), the “Signal/Noise S1/S0” value is recorded as 1.7, the “Signal/Noise S2/S0” value was found to be 2.7, the “Signal/Noise S3/S0” value worked out at 8.1 and the “Signal/Noise S4/S0” value stood at 31.1. In addition, in assay [1] (setting [4]), the “Signal/Noise S5/S0” value is 217.9 and the “Signal/Noise S6/S0” value came out at 1772.4. For the same compound, in assay [1] (setting [5]), the “Signal/Noise S1/S0” value worked out at 1.1, the “Signal/Noise S2/S0” value was 1.9, the “Signal/Noise S3/S0” value was 5.9 and the “Signal/Noise S4/S0” value is 19.8. In addition, in assay [1] (setting [5]), the “Signal/Noise S5/S0” value stood at 118.6 and the “Signal/Noise S6/S0” value was determined as 766.3.
Turning to `c1ccc2c(c1)Nc1ccccc1O2` [phenoxazine], in assay [1] (setting [6]), the “Signal/Noise S1/S0” value is 1.5, the “Signal/Noise S2/S0” value is on record as 3.1, the “Signal/Noise S3/S0” value came out at 8.4 and the “Signal/Noise S4/S0” value is reported as 32.1. In addition, in assay [1] (setting [6]), the “Signal/Noise S5/S0” value was 227.2 and the “Signal/Noise S6/S0” value amounted to 2049.8. Also, in assay [1] (setting [7]), the “Signal/Noise S1/S0” value came out at 1.5, the “Signal/Noise S2/S0” value was found to be 2.3, the “Signal/Noise S3/S0” value came to 6.4 and the “Signal/Noise S4/S0” value was 24.5. In addition, in assay [1] (setting [7]), the “Signal/Noise S5/S0” value worked out at 147.2 and the “Signal/Noise S6/S0” value is recorded as 1116.9. Further, in assay [1] (SSIA final concentration 25 uM), the “Signal/Noise S1/S0” value was 1.3, the “Signal/Noise S2/S0” value was found to be 1.6, the “Signal/Noise S3/S0” value is 3.7 and the “Signal/Noise S4/S0” value is recorded as 12.1. Moreover, in assay [1] (SSIA final concentration 25 uM), the “Signal/Noise S5/S0” value is reported as 62.8 and the “Signal/Noise S6/S0” value amounted to 387.3.
For the compound `NNC(=O)c1cccnc1` [Nicotinic Hydrazide], in assay [2], the “light intensity, BTN-HRP0” value is recorded as 42,260; the S1/S0 was 1.4; the “light intensity, BTN-HRP1” value is listed as 58,356; the S2/S0 was 49.8. In assay [2], the “light intensity, BTN-HRP10” value is 2,106,471; the S3/S0 is given as 194.2; the “light intensity, BTN-HRP100” value is given as 8,205,320; the S4/S0 is on record as 187.5. Besides, in assay [2], the “light intensity, BTN-HRP250” value is given as 7,923,092 and the “effectiveness as SSIA in the model system” value (from here on “effectiveness as SSIA”) is reported as “insuffient effectiveness”.
Regarding `O=C(O)c1cccnc1` [Nicotinic Acid], in assay [2], the “light intensity, BTN-HRP0” value is 34,369; the “light intensity, BTN-HRP1” value is listed as 53,765; the “light intensity, BTN-HRP10” value was 2,228,317; the “light intensity, BTN-HRP100” value is listed as 8,772,523. Further, in assay [2], the “light intensity, BTN-HRP250” value is given as 9,224,439 and the “effectiveness as SSIA” value was “insuffient effectiveness”.
In the case of `COc1ccc2[nH]cc(CCNC(C)=O)c2c1` [Melatonin], in assay [2], the “light intensity, BTN-HRP0” value is on record as 54,528; the S1/S0 was 1.3; the “light intensity, BTN-HRP1” value is given as 70,741; the S2/S0 came to 43.7. For the same compound, in assay [2], the “light intensity, BTN-HRP10” value is on record as 2,381,361; the S3/S0 was 173.7; the “light intensity, BTN-HRP100” value is reported as 9,471,431; the S4/S0 is listed as 190.2. Also, in assay [2], the “light intensity, BTN-HRP250” value was 10,370,061 and the “effectiveness as SSIA” value is listed as “insuffient effectiveness”.
Turning to `O=C(O)CCCC[C@@H]1CCSS1` (racemic) [Lipoic Acid], in assay [2], the “light intensity, BTN-HRP0” value is recorded as 35,016; the S1/S0 came to 2; the “light intensity, BTN-HRP1” value was 71,751; the S2/S0 was 70.0. In assay [2], the “light intensity, BTN-HRP10” value is recorded as 2,450,949; the S3/S0 is 246.9; the “light intensity, BTN-HRP100” value is on record as 8,647,037; the S4/S0 was 252.7. In assay [2], the “light intensity, BTN-HRP250” value is reported as 8,847,921 and the “effectiveness as SSIA” value is “insuffient effectiveness”.
Take `Oc1ccc(Cl)cc1O` [4-chloro catechol, 4-chlorocatechol]: in assay [2], the “light intensity, BTN-HRP0” value was determined as 93; the S1/S0 turned out to be 2.2; the “light intensity, BTN-HRP1” value was 205; the S2/S0 was found to be 14.8. Besides, in assay [2], the “light intensity, BTN-HRP10” value is given as 1,373; the S3/S0 is 4910.8; the “light intensity, BTN-HRP100” value is given as 456,707; the S4/S0 amounted to 13558.5. In assay [2], the “light intensity, BTN-HRP250” value was 1,260,937 and the “effectiveness as SSIA” value is reported as “demonstrating utility as SSIA”.
Consider `Cc1c(O)cc2c(c1C)O[C@](C)(CCC[C@H](C)CCC[C@H](C)CCCC(C)C)CC2` [(+)-gamma-Tocopherol], for which, in assay [2], the “light intensity, BTN-HRP0” value is given as 6,051; the S1/S0 is listed as 1.8; the “light intensity, BTN-HRP1” value is 10,924; the S2/S0 came out at 278.7. In assay [2], the “light intensity, BTN-HRP10” value is 1,686,079; the S3/S0 is 1437.5; the “light intensity, BTN-HRP100” value was 8,698,069; the S4/S0 was 1699.4. Moreover, the “light intensity, BTN-HRP250” value in assay [2] is on record as 10,282,504.
